Source: US8765747B2, “Fused 2-aminothiazole compounds” (Dana-Farber Cancer Institute, Inc., priority 2009, dated 2014)

What was measured:
Type in all cases: cell-based, murine
Ba/F3-T6701 = experiment: Relative IC50 in kit-expressing cell line; conditions: Mus musculus, 2.5-3 days, read-out: Relative IC50 range
Experimental: (§1) All compounds were initially dissolved in DMSO to make 10 mM stock solutions, and then were serially diluted to obtain final concentrations for in vitro experiments.
(§2) All cell lines were cultured with 5% CO2 at 37° C. in RPMI (Mediatech, Inc., Herndon, Va.) with 10% fetal calf serum (FCS) and supplemented with 1% L-glutamine. Parental Ba/F3 cells were similarly cultured with 15% WEHI-conditioned medium as a source of IL-3. Transfected cell lines were cultured in media supplemented with 1 mg/ml G418.

Ba/F3-V6559D = experiment: Relative IC50 in kit-expressing cell line; conditions: Mus musculus, 2.5-3 days, read-out: Relative IC50 range
Experimental: as §1, §2

Ba/F3-delWK + T6701 = experiment: Relative IC50 in kit-expressing cell line; conditions: Mus musculus, 2.5-3 days, read-out: Relative IC50 range
Experimental: as §1, §2

Ba/F3-delWK + V654A = experiment: Relative IC50 in kit-expressing cell line; conditions: Mus musculus, 2.5-3 days, read-out: Relative IC50 range
Experimental: as §1, §2

Ba/F3-delWK + Y823D = experiment: Relative IC50 in kit-expressing cell line; conditions: Mus musculus, 2.5-3 days, read-out: Relative IC50 range
Experimental: as §1, §2

Ba/F3-delWK = experiment: Relative IC50 in kit-expressing cell line; conditions: Mus musculus, 2.5-3 days, read-out: Relative IC50 range
Experimental: as §1, §2

Ba/F3-insAY + T6701 = experiment: Relative IC50 in kit-expressing cell line; conditions: Mus musculus, 2.5-3 days, read-out: Relative IC50 range
Experimental: as §1, §2

Ba/F3-insAY + V654A = experiment: Relative IC50 in kit-expressing cell line; conditions: Mus musculus, 2.5-3 days, read-out: Relative IC50 range
Experimental: as §1, §2

Ba/F3-insAY = experiment: Relative IC50 in kit-expressing cell line; conditions: Mus musculus, 2.5-3 days, read-out: Relative IC50 range
Experimental: as §1, §2

Ba/F3-PDGFRα-D842V = experiment: Relative IC50 in PDGFR-expressing cell line; conditions: Mus musculus, 48 h, 2 day experiment, read-out: Relative IC50 range
Experimental: as §1
(§3) Ba/F3.p210 cells were obtained by transfecting the IL-3-dependent marine hematopoietic Ba/F3 cell line with a pGD vector containing p210BCR-ABL (B2A2) cDNA (Daley and Baltimore, 1988; Sattler et al., 1996; Okuda et al., 1996). Murine hematopoietic 32D cells were transduced with retrovirus to express p210 Bcr-ABL (32D.p210 cells) (Matulonis et al., 1993); the 32D-T315I cell line was transfected by electroporation with the imatinib resistant BCR-ABL construct (pCI-neo Mammalian Expression Vector; Promega (#E1841) harboring the point mutation T315I (Weisberg et al., 2005). Ba/F3 cells were stably transfected by electroporation with imatinib-resistant BCR-ABL constructs (pCI-neo Mammalian Expression Vector; Promega (#E1841) harboring the point mutations T315I, F317L, F486S, and M351T; transfectants were selected for neomycin resistance and IL-3-independent growth (Weisberg et al., 2005). Ba/F3 cells were stably transfected by electroporation with BCR-ABL point mutants identified in a random mutagenesis screen for BCR-ABL point mutants conferring resistance to nilotinib: Q252H, E292K, Y253C, Y253H, E255K, and V289L (Ray et al., 2007). Ba/F3 cells were made to express Tel-PDGFRβ as described by Golub et al., 1994, and Carroll et al., 1996. Constructs of D842V-PDGFRα and V561D-PDGFRα cDNA cloned into pcDNA3.1 were stably transfected into Ba/F3 cells by electroporation, and cells were selected for neomycin resistance and IL3-independent growth as described by Weisberg et al., 2006.
as §2

Ba/F3-PDGFRα-V561D = experiment: Relative IC50 in PDGFR-expressing cell line; conditions: Mus musculus, 48 h, 2 day experiment, read-out: Relative IC50 range
Experimental: as §1, §3, §2

Ba/F3-TEL/PDGFRβ = experiment: Relative IC50 in PDGFR-expressing cell line; conditions: Mus musculus, 2.5-3 days, read-out: Relative IC50 range
Experimental: as §1, §3, §2

32D-BCR-Abl-T3151 = experiment: Cell cycle analysis; conditions: 24 hours of treatment
Excerpt: as §3, §2
(§4) Cell cycle analysis was performed using approximately 500,000 cells, which were centrifuged at 1500 rpm for 5 min, washed in PBS, and the pellet re-suspended in 500 μl of propidium iodide solution (50 μg/ml propidium iodide, 0.1% NP-40, 0.1% sodium citrate). The mixture was stored in the dark at 4° C. for a minimum of 15 min, and then analyzed by flow cytometry. Apoptosis of drug-treated cells was measured using the Annexin-V-Fluos Staining Kit (Boehringer Mannheim, Indianapolis).

32D-BCR-Abl = experiment: Cell cycle analysis; conditions: 24 hours of treatment
Excerpt: as §3, §2, §4

CCN1CCN(Cc2ccc(NC(=O)c3cccc(-c4ccc5nc(NC(=O)C6CC6)sc5n4)c3)cc2C(F)(F)F)CC1 [Compound 2]
IC50 (Ba/F3-T6701): 0.25 µM | IC50 (Ba/F3-V6559D): 0.25 to 0.5 µM | IC50 (Ba/F3-delWK + T6701): 0.025 to 0.05 µM | IC50 (Ba/F3-delWK + V654A): 0.025 to 0.05 µM | IC50 (Ba/F3-delWK + Y823D): 0.5 to 1 µM | IC50 (Ba/F3-delWK): 0.0125 to 0.025 µM | IC50 (Ba/F3-insAY + T6701): ≥ 1 µM | IC50 (Ba/F3-insAY + V654A): > 1 µM | IC50 (Ba/F3-insAY): > 1 µM | IC50 (Ba/F3-PDGFRα-D842V): 1 µM | IC50 (Ba/F3-PDGFRα-V561D): > 1 µM | IC50 (Ba/F3-TEL/PDGFRβ): < 0.1 µM | % G0G1 (32D-BCR-Abl-T3151; 0.01 μM): 36.96% | % G2M (32D-BCR-Abl-T3151; 0.01 μM): 22.64% | % S (32D-BCR-Abl-T3151; 0.01 μM): 40.40% | % G0G1 (32D-BCR-Abl-T3151; 0.1 μM): 46.35% | % G2M (32D-BCR-Abl-T3151; 0.1 μM): 10.54% | % S (32D-BCR-Abl-T3151; 0.1 μM): 43.11% | % G0G1 (32D-BCR-Abl-T3151; 1.0 μM): 73.13% | % G2M (32D-BCR-Abl-T3151; 1.0 μM): 9.29% | % S (32D-BCR-Abl-T3151; 1.0 μM): 17.59% | % G0G1 (32D-BCR-Abl; 0.01 μM): 42.62% | % G2M (32D-BCR-Abl; 0.01 μM): 9.56% | % S (32D-BCR-Abl; 0.01 μM): 47.82% | % G0G1 (32D-BCR-Abl; 0.1 μM): 76.52% | % G2M (32D-BCR-Abl; 0.1 μM): 3.78% | % S (32D-BCR-Abl; 0.1 μM): 19.71% | % G0G1 (32D-BCR-Abl; 1.0 μM): 77.44% | % G2M (32D-BCR-Abl; 1.0 μM): 9.07% | % S (32D-BCR-Abl; 1.0 μM): 13.49%
